What was measured:
eotaxin-2 = target: T1, eotaxin-2 (Homo sapiens, UniProt O00175); assay: BIAcore inhibition of eotaxin-2 binding to immobilized heparin; settings: BIAcore chip, FIG. 3E
T1 sequence (O00175 27-119): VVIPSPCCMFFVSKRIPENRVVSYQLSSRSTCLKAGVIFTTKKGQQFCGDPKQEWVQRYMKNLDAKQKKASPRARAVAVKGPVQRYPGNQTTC
Description: The optical phenomenon of surface plasmon resonance is used to monitor physical interactions between molecules. Passing a solution of a potential protein ligand (e.g. IL-4, IL-5 or eotaxin) over a sensor surface to which a target (e.g. heparin) is coupled monitors the real-time binding of protein ligands to the immobilized target. Detection is achieved by measuring refractive index changes very close to the sensor surface. When the refractive index is altered, the angle at which plasmon resonance occurs changes and this change directly correlates with the amount of protein interacting with the surface. A BIAcore 2000 is conveniently used. […]
Biotinylated heparin is immobilized on the biosensor chip. […] Solutions containing potential protein ligands of interest are injected over the sensor chip surface, and the binding is measured in real time (Fernig, In: Proteoglycan protocols, Ed. R. V. Iozzo, Humana Press, Totowa, N.J., USA, 2001). Baculovirus expressed recombinant human IL-4 (rhIL-4) and baculovirus expressed recombinant human IL-5 (rhIL-5) readily bind to heparin immobilized by this method (see PCT/AU2005/000551). […] Similarly, recombinant human eotaxin (CCL11) expressed in E. coli binds readily to immobilized heparin and binding is specific as there is little eotaxin binding to sensor chips lacking heparin. […]

Human leukocyte elastase = target: T2, Human leukocyte elastase (Homo sapiens, UniProt P08246); assay: Elastase assay with fluorogenic substrate; format: biochemical; settings: fluorogenic substrate MeOSuc-Ala-Ala-Pro-Val-amido-methylcoumarin, pH 7.4, 37° C., 60 minutes; read-out: IC50, inhibition of human leukocyte elastase activity
T2 sequence (P08246 30-267): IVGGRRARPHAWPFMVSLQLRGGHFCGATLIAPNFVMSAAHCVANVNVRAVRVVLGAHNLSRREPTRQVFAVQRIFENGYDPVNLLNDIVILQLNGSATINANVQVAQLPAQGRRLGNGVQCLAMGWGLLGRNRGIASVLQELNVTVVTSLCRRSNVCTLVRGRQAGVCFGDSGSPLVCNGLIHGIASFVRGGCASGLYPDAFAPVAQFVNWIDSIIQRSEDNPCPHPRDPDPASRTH
Experimental: Elastase is a protein that is a potential target for the treatment of COPD. Elastase assays were performed in 96-well plastic microplates for easy quantification by the fluorescent plate reader. Human leukocyte elastase (5 nM/well) was incubated in the presence of absence of pentosan polysulfate, or other sulfated polysaccharides, with the fluorogenic substrate MeOSuc-Ala-Ala-Pro-Val-amido-methylcoumarin (20 μM/well) in a sodium phosphate buffer, pH 7.4. The mixture was incubated at 37° C. for 60 minutes before the reaction was stopped by the addition of 10 μl/well of […] acetic acid and the mixture transferred to a 96-well microplate with fluorescence being measured using an excitation wavelength of 355 nm and an emission wavelength of 460 nm. Various concentrations of inhibitors were used to allow the calculation of the concentration of polysaccharide required to inhibit enzyme activity by 50% (IC50).

IC50 (eotaxin-2): ~15 nM
IC50 (Human leukocyte elastase): ~1800 nM
Substance: Pentosan polysulfate [PPS]

Source: patent publication US20180078576A1, “SULPHATED XYLANS FOR TREATMENT OR PROPHYLAXIS OF RESPIRATORY DISEASES” (Paradigm Biopharmaceuticals Limited, priority 2007, published 2018)
